# Assay results: PubChem BioAssay (NCI)
#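 Growth conditions: 96-well plates. Treatment: test compound, 48 hours, 5 concentrations. Analysis: linear interpolation between bracketing concentrations; unreached endpoints set to highest concentration. GI50 marks 50% less growth. TGI marks complete inhibition of growth.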
# Legend:
# Test in all cases: NCI tumour cell line growth inhibition, 48 h
# SF-539 CNS = tested on: SF-539 CNS
# SNB-75 CNS = tested on: SNB-75 CNS
# U251 CNS = tested on: U251 CNS
# SW-620 colon = tested on: SW-620 colon
# UO-31 renal = tested on: UO-31 renal
# UACC-257 melanoma = tested on: UACC-257 melanoma
# SF-295 CNS = tested on: SF-295 CNS
# A498 renal = tested on: A498 renal
# KM12 colon = tested on: KM12 colon
# MALME-3M melanoma = tested on: MALME-3M melanoma
# NCI-H460 lung = tested on: NCI-H460 lung
# A549 NSCLC = tested on: A549 NSCLC
# NCI/ADR-RES ovarian = tested on: NCI/ADR-RES ovarian
# MDA-MB-435 = tested on: MDA-MB-435
# OVCAR-5 ovarian = tested on: OVCAR-5 ovarian
# MCF7 breast = tested on: MCF7 breast
# HCC-2998 colon = tested on: HCC-2998 colon
# MOLT-4 leukemia = tested on: MOLT-4 leukemia
# SR leukemia = tested on: SR leukemia
# K-562 leukemia = tested on: K-562 leukemia
# UACC-62 melanoma = tested on: UACC-62 melanoma
# SF-268 CNS = tested on: SF-268 CNS
# SK-MEL-28 melanoma = tested on: SK-MEL-28 melanoma
# SK-MEL-2 melanoma = tested on: SK-MEL-2 melanoma
# OVCAR-8 ovarian = tested on: OVCAR-8 ovarian
# HT29 colon = tested on: HT29 colon
# EKVX NSCLC = tested on: EKVX NSCLC
# RXF 393 renal = tested on: RXF 393 renal
# CCRF-CEM leukemia = tested on: CCRF-CEM leukemia
# OVCAR-3 ovarian = tested on: OVCAR-3 ovarian
# HL-60(TB) leukemia = tested on: HL-60(TB) leukemia
# COLO 205 colon = tested on: COLO 205 colon
# HOP-62 NSCLC = tested on: HOP-62 NSCLC
# T-47D breast = tested on: T-47D breast
# HCT-15 colon = tested on: HCT-15 colon
# SK-OV-3 ovarian = tested on: SK-OV-3 ovarian
# OVCAR-4 ovarian = tested on: OVCAR-4 ovarian
# RPMI-8226 leukemia = tested on: RPMI-8226 leukemia
# SNB-19 CNS = tested on: SNB-19 CNS
# HS 578T breast = tested on: HS 578T breast
# LOX IMVI melanoma = tested on: LOX IMVI melanoma
# NCI-H23 lung = tested on: NCI-H23 lung
# SK-MEL-5 melanoma = tested on: SK-MEL-5 melanoma
# NCI-H226 lung = tested on: NCI-H226 lung
# PC-3 prostate = tested on: PC-3 prostate
# HOP-92 NSCLC = tested on: HOP-92 NSCLC
# ACHN renal = tested on: ACHN renal
# SN12C renal = tested on: SN12C renal
# MDA-MB-231 breast = tested on: MDA-MB-231 breast
# TK-10 renal = tested on: TK-10 renal
# NCI-H522 lung = tested on: NCI-H522 lung
# IGROV1 ovarian = tested on: IGROV1 ovarian
smiles,measurement,setting,value
CC1=CC(=O)CC(C)(C)[C@@]1(O)/C=C/C(C)=C\C(=O)O,GI50,SF-539 CNS,206 nM
same,TGI,SF-539 CNS,1290 nM
same,GI50,SNB-75 CNS,517 nM
same,TGI,SNB-75 CNS,1130 nM
same,GI50,U251 CNS,224 nM
same,TGI,U251 CNS,2260 nM
same,GI50,SW-620 colon,285 nM
same,TGI,SW-620 colon,2200 nM
same,GI50,UO-31 renal,608 nM
same,TGI,UO-31 renal,2300 nM
same,GI50,UACC-257 melanoma,534 nM
same,TGI,UACC-257 melanoma,2520 nM
same,GI50,SF-295 CNS,749 nM
same,TGI,SF-295 CNS,2320 nM
same,GI50,A498 renal,115 nM
same,TGI,A498 renal,374 nM
same,GI50,KM12 colon,210 nM
same,TGI,KM12 colon,1560 nM
same,GI50,MALME-3M melanoma,104 nM
same,TGI,MALME-3M melanoma,329 nM
same,GI50,NCI-H460 lung,132 nM
same,TGI,NCI-H460 lung,336 nM
same,GI50,A549 NSCLC,408 nM
same,TGI,A549 NSCLC,3.5 µM
same,GI50,NCI/ADR-RES ovarian,1010 nM
same,TGI,NCI/ADR-RES ovarian,3.76 µM
same,GI50,MDA-MB-435,182 nM
same,TGI,MDA-MB-435,738 nM
same,GI50,OVCAR-5 ovarian,840 nM
same,TGI,OVCAR-5 ovarian,2980 nM
same,GI50,MCF7 breast,165 nM
same,TGI,MCF7 breast,1360 nM
same,GI50,HCC-2998 colon,139 nM
same,TGI,HCC-2998 colon,430 nM
same,GI50,MOLT-4 leukemia,152 nM
same,TGI,MOLT-4 leukemia,> 50 µM
same,GI50,SR leukemia,155 nM
same,TGI,SR leukemia,> 50 µM
same,GI50,K-562 leukemia,164 nM
same,TGI,K-562 leukemia,> 50 µM
same,GI50,UACC-62 melanoma,545 nM
same,TGI,UACC-62 melanoma,1370 nM
same,GI50,SF-268 CNS,793 nM
same,TGI,SF-268 CNS,2820 nM
same,GI50,SK-MEL-28 melanoma,172 nM
same,TGI,SK-MEL-28 melanoma,669 nM
same,GI50,SK-MEL-2 melanoma,923 nM
same,TGI,SK-MEL-2 melanoma,2310 nM
same,GI50,OVCAR-8 ovarian,527 nM
same,TGI,OVCAR-8 ovarian,3.15 µM
same,GI50,HT29 colon,157 nM
same,TGI,HT29 colon,585 nM
same,GI50,EKVX NSCLC,250 nM
same,TGI,EKVX NSCLC,2290 nM
same,GI50,RXF 393 renal,114 nM
same,TGI,RXF 393 renal,327 nM
same,GI50,CCRF-CEM leukemia,196 nM
same,TGI,CCRF-CEM leukemia,> 50 µM
same,GI50,OVCAR-3 ovarian,148 nM
same,TGI,OVCAR-3 ovarian,478 nM
same,GI50,HL-60(TB) leukemia,127 nM
same,TGI,HL-60(TB) leukemia,309 nM
same,GI50,COLO 205 colon,204 nM
same,TGI,COLO 205 colon,950 nM
same,GI50,HOP-62 NSCLC,159 nM
same,TGI,HOP-62 NSCLC,1050 nM
same,GI50,T-47D breast,340 nM
same,TGI,T-47D breast,2220 nM
same,GI50,HCT-15 colon,153 nM
same,TGI,HCT-15 colon,777 nM
same,GI50,SK-OV-3 ovarian,284 nM
same,TGI,SK-OV-3 ovarian,2220 nM
same,GI50,OVCAR-4 ovarian,131 nM
same,TGI,OVCAR-4 ovarian,464 nM
same,GI50,RPMI-8226 leukemia,174 nM
same,TGI,RPMI-8226 leukemia,644 nM
same,GI50,SNB-19 CNS,254 nM
same,TGI,SNB-19 CNS,2280 nM
same,GI50,HS 578T breast,209 nM
same,TGI,HS 578T breast,1570 nM
same,GI50,LOX IMVI melanoma,129 nM
same,TGI,LOX IMVI melanoma,432 nM
same,GI50,NCI-H23 lung,376 nM
same,TGI,NCI-H23 lung,2230 nM
same,GI50,SK-MEL-5 melanoma,111 nM
same,TGI,SK-MEL-5 melanoma,252 nM
same,GI50,NCI-H226 lung,148 nM
same,TGI,NCI-H226 lung,499 nM
same,GI50,PC-3 prostate,347 nM
same,TGI,PC-3 prostate,3.46 µM
same,GI50,HOP-92 NSCLC,566 nM
same,TGI,HOP-92 NSCLC,2980 nM
same,GI50,ACHN renal,489 nM
same,TGI,ACHN renal,2380 nM
same,GI50,SN12C renal,894 nM
same,TGI,SN12C renal,3.9 µM
same,GI50,MDA-MB-231 breast,1140 nM
same,TGI,MDA-MB-231 breast,3.55 µM
same,GI50,TK-10 renal,471 nM
same,TGI,TK-10 renal,2740 nM
same,GI50,NCI-H522 lung,115 nM
same,TGI,NCI-H522 lung,359 nM
same,GI50,IGROV1 ovarian,157 nM
same,TGI,IGROV1 ovarian,946 nM
